The data set relates to GRN mRNA. Kind of data set: GRN mRNA qPCR in SK-N-AS cells transfected with ASOs. The data set is classed as cell-based, human. The conditions noted are these: SK-N-AS; for hGRN mRNA FC: Table 9, 48 hours post-transfection. In outline:
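Human neuroblastoma SK-N-AS cells transfected with ASOs at increasing concentrations (20 to 160 nM in initial titrations); GRN mRNA quantified by qPCR after 48 hours. Normalized to GAPDH and PPIA, fold change relative to steric non-targeting control ASO(s) (sNTC/CO-1589, with CO-3772 and CO-1929 in some series).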
A general note: Quantitative PCR measures a nucleic acid by following its amplification.

Oligonucleotides are written 5' to 3', each unit as a sugar letter and its base; * is a phosphorothioate linkage, no mark a phosphodiester; rarer units and linkages stand in square brackets, end groups in braces. Plain capitals give the bases only. e = 2'-O-(2-methoxyethyl) (MOE); [5mC] = 5-methylcytosine

Consider “CO-4625: ASO designed to target intergenic enhancers (eRNA) (antisense eT*e[5mC]*eT*eT*eG*eT*eT*eG*eT*eT*eG*eG*eA*eA*eA*eT*eT*e[5mC]*e[5mC]*e[5mC])”, for which the “hGRN mRNA FC” value (120 nM, normalized to CO-1589) is listed as 1.1 FC.

As for “CO-4626: ASO designed to target intergenic enhancers (eRNA) (antisense e[5mC]*e[5mC]*eT*e[5mC]*eA*eT*eG*eT*eA*eT*eG*eT*eA*eA*eT*eT*eG*e[5mC]*e[5mC]*e[5mC])”, the “hGRN mRNA FC” value (120 nM, normalized to CO-1589) is 1.0 FC.

Take “CO-4627: ASO designed to target intergenic enhancers (eRNA) (antisense eA*e[5mC]*eT*e[5mC]*eA*eA*eT*eG*e[5mC]*eA*eT*eA*eG*e[5mC]*eA*eG*eA*eA*eT*eA)”: where the note is “120 nM, normalized to CO-1589”, the “hGRN mRNA FC” value was 1.3 FC.

As to “CO-4628: ASO designed to target intergenic enhancers (eRNA) (antisense eT*e[5mC]*e[5mC]*eA*eT*eA*e[5mC]*eA*eA*e[5mC]*eT*eG*e[5mC]*eA*eG*eA*eG*eT*eG*eG)”, the “hGRN mRNA FC” value (120 nM, normalized to CO-1589) is listed as 1.0 FC.

With “CO-4629: ASO designed to target intergenic enhancers (eRNA) (antisense eA*eT*eG*eG*e[5mC]*eA*eA*eA*eT*eG*eA*e[5mC]*e[5mC]*eT*eT*e[5mC]*eG*eG*eT*eA)”, the “hGRN mRNA FC” value (120 nM, normalized to CO-1589) is on record as 1.1 FC.

Turning to “CO-4630: ASO designed to target intergenic enhancers (eRNA) (antisense eG*eT*e[5mC]*eT*eT*e[5mC]*eA*eA*eG*eA*eA*e[5mC]*eT*eT*eT*eA*e[5mC]*e[5mC]*eG*eA)”, under “120 nM, normalized to CO-1589”, the “hGRN mRNA FC” value came to 1.0 FC.

In the case of “CO-4631: ASO designed to target intergenic enhancers (eRNA) (antisense eA*e[5mC]*e[5mC]*eA*e[5mC]*eT*e[5mC]*eT*eG*e[5mC]*eA*eG*eT*eT*eG*eT*eA*eT*eG*eG)”, where the note is “3.75 nM to 120 nM, 48 hours”, the “hit identification (GRN mRNA dose escalation)” value was “initial hits”. In addition, the “hGRN mRNA FC” value (120 nM, normalized to CO-1589) came out at 1.1 FC. Moreover, the “3.75 nM FC (GRN mRNA)” value (Table 10, 3.75 nM, 48 hours, normalized to CO-1589) is recorded as 1.1 FC. The “7.5 nM FC (GRN mRNA)” value (Table 10, 7.5 nM, 48 hours, normalized to CO-1589) is recorded as 1.1 FC. The “15 nM FC (GRN mRNA)” value (Table 10, 15 nM, 48 hours, normalized to CO-1589) came out at 1.2 FC. The “30 nM FC (GRN mRNA)” value (Table 10, 30 nM, 48 hours, normalized to CO-1589) amounted to 1.1 FC. The “60 nM FC (GRN mRNA)” value (Table 10, 60 nM, 48 hours, normalized to CO-1589) is 1.1 FC. Further, the “120 nM FC (GRN mRNA)” value (Table 10, 120 nM, 48 hours, normalized to CO-1589) is 1.3 FC.

In the case of “CO-4632: ASO designed to target intergenic enhancers (eRNA) (antisense eT*eG*e[5mC]*eT*eA*eT*eG*e[5mC]*eA*eT*eT*eG*eA*eG*eT*eT*eT*eT*e[5mC]*e[5mC])”, the “hGRN mRNA FC” value (120 nM, normalized to CO-1589) amounted to 1.1 FC.

Regarding “CO-4633: ASO designed to target intergenic enhancers (eRNA) (antisense eT*e[5mC]*e[5mC]*eT*e[5mC]*eT*eG*e[5mC]*e[5mC]*eT*eG*eA*e[5mC]*eT*eA*eA*eT*eT*e[5mC]*eG)”, the “hGRN mRNA FC” value (120 nM, normalized to CO-1589) is on record as 1.3 FC.

“CO-4634: ASO designed to target intergenic enhancers (eRNA) (antisense eT*eT*eT*eA*e[5mC]*e[5mC]*e[5mC]*eA*eT*eA*eT*eA*e[5mC]*e[5mC]*e[5mC]*eA*e[5mC]*eA*e[5mC]*e[5mC])”: the “hGRN mRNA FC” value (120 nM, normalized to CO-1589) is listed as 1.1 FC.

Consider “CO-4635: ASO designed to target intergenic enhancers (eRNA) (antisense eG*eT*eT*eT*eG*e[5mC]*eA*eA*eT*eT*e[5mC]*eT*e[5mC]*eA*eG*eA*e[5mC]*e[5mC]*eT*eG)”, for which, under “120 nM, normalized to CO-1589”, the “hGRN mRNA FC” value is given as 1.0 FC.

For the substance “CO-4636: ASO designed to target intergenic enhancers (eRNA) (antisense eG*eG*e[5mC]*eA*eA*eT*eT*eA*e[5mC]*eA*eT*eA*e[5mC]*eA*eT*eG*eA*eG*eG*eA)”, the “hGRN mRNA FC” value (120 nM, normalized to CO-1589) is recorded as 0.9 FC.

Values taken from patent publication US20250243488A1, “METHODS OF MODULATING PROGRANULIN EXPRESSION USING ANTISENSE OLIGONUCLEOTIDES TARGETING REGULATORY RNAS” (Camp4 Therapeutics Corporation, priority 2022, published 2025).
